What was measured:
[1] = biological target: T1, STK35 (Homo sapiens, UniProt Q8TDR2); assay: KINOMEscan at 1 μM, STK35; assay type: binding; conditions: 1000 nM, read-out: Percent Control
T1 construct: purchased Eurofins DiscoverX KINOMEscan
Source text: (§1) Supplement cells-12-00287-s001.zip/File S2. KinomeScan data for the CAMKK2 probe and negative control.xlsx, sheet "SGC-CAMKK2-1N" | column: Percent Control

[2] = biological target: T2, TNNI3K (Homo sapiens, UniProt Q59H18); assay: KINOMEscan at 1 μM, TNNI3K; assay type: binding; conditions: 1000 nM, read-out: Percent Control
T2 construct: purchased Eurofins DiscoverX KINOMEscan
Source text: as §1

[3] = biological target: T3, PRKR (Homo sapiens, UniProt P19525); assay: KINOMEscan at 1 μM, PRKR; assay type: binding; conditions: 1000 nM, read-out: Percent Control
T3 construct: purchased Eurofins DiscoverX KINOMEscan
Source text: as §1

[4] = biological target: T4, PIP5K1C (Homo sapiens, UniProt O60331); assay: KINOMEscan binding assay at 1 μM, PIP5K1C; conditions: Compound Concentration 1000 nM; read-out: Percent Control
T4 construct: purchased Eurofins DiscoverX KINOMEscan
Source text: as §1

[5] = biological target: T5, TYK2(JH1domain-catalytic) (Homo sapiens, UniProt P29597); assay: KINOMEscan at 1 μM, TYK2(JH1domain-catalytic); assay type: binding; conditions: 1000 nM, read-out: Percent Control
T5 construct: TYK2(JH1domain-catalytic); purchased Eurofins DiscoverX KINOMEscan
Source text: as §1

[6] = biological target: T6, ERK3 (Homo sapiens, UniProt Q16659); assay: KINOMEscan at 1 μM, ERK3; assay type: binding; conditions: 1000 nM, read-out: Percent Control
T6 construct: purchased Eurofins DiscoverX KINOMEscan
Source text: as §1

[7] = biological target: T7, MAP3K1 (Homo sapiens, UniProt Q13233); assay: KINOMEscan at 1 μM, MAP3K1; assay type: binding; conditions: 1000 nM, read-out: Percent Control
T7 construct: purchased Eurofins DiscoverX KINOMEscan
Source text: as §1

[8] = biological target: T8, BMPR2 (Homo sapiens, UniProt Q13873); assay: KINOMEscan at 1 μM, BMPR2; assay type: binding; conditions: 1000 nM, read-out: Percent Control
T8 construct: purchased Eurofins DiscoverX KINOMEscan
Source text: as §1

[9] = biological target: T9, MST4 (Homo sapiens, UniProt Q9P289); assay: KINOMEscan at 1 μM, MST4; assay type: binding; conditions: 1000 nM, read-out: Percent Control
T9 construct: purchased Eurofins DiscoverX KINOMEscan
Source text: as §1

[10] = biological target: T10, MAP3K15 (Homo sapiens, UniProt Q6ZN16); assay: KINOMEscan binding assay at 1 μM, MAP3K15; conditions: Compound Concentration 1000 nM; read-out: Percent Control
T10 construct: purchased Eurofins DiscoverX KINOMEscan
Source text: as §1

[11] = biological target: T11, FLT3(R834Q) (Homo sapiens, UniProt P36888, R834Q); assay: KINOMEscan at 1 μM, FLT3(R834Q); assay type: binding; conditions: 1000 nM, read-out: Percent Control
T11 construct: purchased Eurofins DiscoverX KINOMEscan
Source text: as §1

[12] = biological target: T12, TSSK1B (Homo sapiens, UniProt Q9BXA7); assay: KINOMEscan at 1 μM, TSSK1B; assay type: binding; conditions: 1000 nM, read-out: Percent Control
T12 construct: purchased Eurofins DiscoverX KINOMEscan
Source text: as §1

[13] = biological target: T13, ARK5 (Homo sapiens, UniProt O60285); assay: KINOMEscan at 1 μM, ARK5; assay type: binding; conditions: 1000 nM, read-out: Percent Control
T13 construct: purchased Eurofins DiscoverX KINOMEscan
Source text: as §1

[14] = biological target: T14, MRCKA (Homo sapiens, UniProt Q5VT25); assay: KINOMEscan at 1 μM, MRCKA; assay type: binding; conditions: 1000 nM, read-out: Percent Control
T14 construct: purchased Eurofins DiscoverX KINOMEscan
Source text: as §1

[15] = biological target: T15, RPS6KA4(Kin.Dom.1-N-terminal) (Homo sapiens, UniProt O75676); assay: KINOMEscan binding assay at 1 μM, RPS6KA4(Kin.Dom.1-N-terminal); conditions: Compound Concentration 1000 nM; read-out: Percent Control
T15 construct: RPS6KA4(Kin.Dom.1-N-terminal); purchased Eurofins DiscoverX KINOMEscan
Source text: as §1

[16] = biological target: T16, MARK3 (Homo sapiens, UniProt P27448); assay: KINOMEscan at 1 μM, MARK3; assay type: binding; conditions: 1000 nM, read-out: Percent Control
T16 construct: purchased Eurofins DiscoverX KINOMEscan
Source text: as §1

[17] = biological target: T17, TGFBR2 (Homo sapiens, UniProt P37173); assay: KINOMEscan 1 μM, TGFBR2; assay type: binding; conditions: 1000 nM; Entrez TGFBR2; read-out: Percent Control
T17 construct: purchased Eurofins DiscoverX KINOMEscan
Source text: (§2) Supplement cells-12-00287-s001.zip/File S2. KinomeScan data for the CAMKK2 probe and negative control.xlsx, sheet "SGC-CAMKK2-1" | column: Percent Control

[18] = biological target: T18, ERBB4 (Homo sapiens, UniProt Q15303); assay: KINOMEscan 1 μM, ERBB4; assay type: binding; conditions: 1000 nM; Entrez ERBB4; read-out: Percent Control
T18 construct: purchased Eurofins DiscoverX KINOMEscan
Source text: as §2

[19] = biological target: T19, EGFR(L858R,T790M) (Homo sapiens, UniProt P00533, L858R/T790M); assay: KINOMEscan 1 μM, EGFR(L858R,T790M); assay type: binding; conditions: 1000 nM; Entrez EGFR; read-out: Percent Control
T19 construct: purchased Eurofins DiscoverX KINOMEscan
Source text: as §2

[20] = biological target: T20, DAPK2 (Homo sapiens, UniProt Q9UIK4); assay: KINOMEscan 1 μM, DAPK2; assay type: binding; conditions: 1000 nM; Entrez DAPK2; read-out: Percent Control
T20 construct: purchased Eurofins DiscoverX KINOMEscan
Source text: as §2

[21] = biological target: T21, TNK2 (Homo sapiens, UniProt Q07912); assay: KINOMEscan 1 μM, TNK2; assay type: binding; conditions: 1000 nM; Entrez TNK2; read-out: Percent Control
T21 construct: purchased Eurofins DiscoverX KINOMEscan
Source text: as §2

[22] = biological target: T22, CSNK2A1 (Homo sapiens, UniProt P68400); assay: KINOMEscan 1 μM, CSNK2A1; assay type: binding; conditions: 1000 nM; Entrez CSNK2A1; read-out: Percent Control
T22 construct: purchased Eurofins DiscoverX KINOMEscan
Source text: as §2

[23] = biological target: T23, LOK (Homo sapiens, UniProt O94804); assay: KINOMEscan 1 μM, LOK; assay type: binding; conditions: 1000 nM; Entrez STK10; read-out: Percent Control
T23 construct: purchased Eurofins DiscoverX KINOMEscan
Source text: as §2

[24] = biological target: T24, MAP3K3 (Homo sapiens, UniProt Q99759); assay: KINOMEscan 1 μM, MAP3K3; assay type: binding; conditions: 1000 nM; Entrez MAP3K3; read-out: Percent Control
T24 construct: purchased Eurofins DiscoverX KINOMEscan
Source text: as §2

[25] = biological target: T25, NDR1 (Homo sapiens, UniProt Q15208); assay: KINOMEscan 1 μM, NDR1; assay type: binding; conditions: 1000 nM; Entrez STK38; read-out: Percent Control
T25 construct: purchased Eurofins DiscoverX KINOMEscan
Source text: as §2

[26] = biological target: T26, RSK2(Kin.Dom.1-N-terminal) (Homo sapiens, UniProt P51812); assay: DiscoverX KINOMEscan binding assay at 1 μM, RSK2(Kin.Dom.1-N-terminal); conditions: RSK2(Kin.Dom.1-N-terminal) (RPS6KA3); Compound Concentration 1000 nM; read-out: Percent Control
T26 construct: RSK2(Kin.Dom.1-N-terminal); purchased Eurofins DiscoverX KINOMEscan
Source text: as §2

[27] = biological target: T27, ABL1(F317L)-phosphorylated (Homo sapiens, UniProt P00519, F317L); assay: KINOMEscan 1 μM, ABL1(F317L)-phosphorylated; assay type: binding; conditions: 1000 nM; Entrez ABL1; read-out: Percent Control
T27 construct: purchased Eurofins DiscoverX KINOMEscan
Source text: as §2

[28] = biological target: T28, HIPK1 (Homo sapiens, UniProt Q86Z02); assay: KINOMEscan 1 μM, HIPK1; assay type: binding; conditions: 1000 nM; Entrez HIPK1; read-out: Percent Control
T28 construct: purchased Eurofins DiscoverX KINOMEscan
Source text: as §2

[29] = biological target: T29, ABL1(H396P)-nonphosphorylated (Homo sapiens, UniProt P00519, H396P); assay: KINOMEscan 1 μM, ABL1(H396P)-nonphosphorylated; assay type: binding; conditions: 1000 nM; Entrez ABL1; read-out: Percent Control
T29 construct: purchased Eurofins DiscoverX KINOMEscan
Source text: as §2

[30] = biological target: T30, EGFR(S752-I759del) (Homo sapiens, UniProt P00533, DEL752-759); assay: KINOMEscan 1 μM, EGFR(S752-I759del); assay type: binding; conditions: 1000 nM; Entrez EGFR; read-out: Percent Control
T30 construct: purchased Eurofins DiscoverX KINOMEscan
Source text: as §2

[31] = biological target: T31, GRK3 (Homo sapiens, UniProt P35626); assay: KINOMEscan 1 μM, GRK3; assay type: binding; conditions: 1000 nM; Entrez ADRBK2; read-out: Percent Control
T31 construct: purchased Eurofins DiscoverX KINOMEscan
Source text: as §2

[32] = biological target: T32, KIT(D816V) (Homo sapiens, UniProt P10721, D816V); assay: KINOMEscan 1 μM, KIT(D816V); assay type: binding; conditions: 1000 nM; Entrez KIT; read-out: Percent Control
T32 construct: purchased Eurofins DiscoverX KINOMEscan
Source text: as §2

T24 sequence (Q99759 whole entry): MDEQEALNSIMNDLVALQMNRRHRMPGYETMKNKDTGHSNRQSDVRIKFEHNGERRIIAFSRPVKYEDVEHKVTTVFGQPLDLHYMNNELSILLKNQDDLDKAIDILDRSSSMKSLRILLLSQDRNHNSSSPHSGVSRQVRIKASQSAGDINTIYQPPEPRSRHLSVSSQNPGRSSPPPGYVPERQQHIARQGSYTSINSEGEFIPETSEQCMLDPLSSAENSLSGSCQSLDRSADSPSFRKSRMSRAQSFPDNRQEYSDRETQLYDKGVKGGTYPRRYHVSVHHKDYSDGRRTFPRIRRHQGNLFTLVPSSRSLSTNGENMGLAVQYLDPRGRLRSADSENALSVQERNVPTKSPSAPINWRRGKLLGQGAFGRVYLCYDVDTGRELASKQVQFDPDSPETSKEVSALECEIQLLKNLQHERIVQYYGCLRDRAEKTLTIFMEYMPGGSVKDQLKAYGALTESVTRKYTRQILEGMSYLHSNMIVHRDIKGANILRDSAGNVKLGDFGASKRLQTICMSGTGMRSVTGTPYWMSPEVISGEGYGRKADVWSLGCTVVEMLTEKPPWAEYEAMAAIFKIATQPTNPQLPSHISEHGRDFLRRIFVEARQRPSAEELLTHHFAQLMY
T18 sequence (Q15303 26-1308): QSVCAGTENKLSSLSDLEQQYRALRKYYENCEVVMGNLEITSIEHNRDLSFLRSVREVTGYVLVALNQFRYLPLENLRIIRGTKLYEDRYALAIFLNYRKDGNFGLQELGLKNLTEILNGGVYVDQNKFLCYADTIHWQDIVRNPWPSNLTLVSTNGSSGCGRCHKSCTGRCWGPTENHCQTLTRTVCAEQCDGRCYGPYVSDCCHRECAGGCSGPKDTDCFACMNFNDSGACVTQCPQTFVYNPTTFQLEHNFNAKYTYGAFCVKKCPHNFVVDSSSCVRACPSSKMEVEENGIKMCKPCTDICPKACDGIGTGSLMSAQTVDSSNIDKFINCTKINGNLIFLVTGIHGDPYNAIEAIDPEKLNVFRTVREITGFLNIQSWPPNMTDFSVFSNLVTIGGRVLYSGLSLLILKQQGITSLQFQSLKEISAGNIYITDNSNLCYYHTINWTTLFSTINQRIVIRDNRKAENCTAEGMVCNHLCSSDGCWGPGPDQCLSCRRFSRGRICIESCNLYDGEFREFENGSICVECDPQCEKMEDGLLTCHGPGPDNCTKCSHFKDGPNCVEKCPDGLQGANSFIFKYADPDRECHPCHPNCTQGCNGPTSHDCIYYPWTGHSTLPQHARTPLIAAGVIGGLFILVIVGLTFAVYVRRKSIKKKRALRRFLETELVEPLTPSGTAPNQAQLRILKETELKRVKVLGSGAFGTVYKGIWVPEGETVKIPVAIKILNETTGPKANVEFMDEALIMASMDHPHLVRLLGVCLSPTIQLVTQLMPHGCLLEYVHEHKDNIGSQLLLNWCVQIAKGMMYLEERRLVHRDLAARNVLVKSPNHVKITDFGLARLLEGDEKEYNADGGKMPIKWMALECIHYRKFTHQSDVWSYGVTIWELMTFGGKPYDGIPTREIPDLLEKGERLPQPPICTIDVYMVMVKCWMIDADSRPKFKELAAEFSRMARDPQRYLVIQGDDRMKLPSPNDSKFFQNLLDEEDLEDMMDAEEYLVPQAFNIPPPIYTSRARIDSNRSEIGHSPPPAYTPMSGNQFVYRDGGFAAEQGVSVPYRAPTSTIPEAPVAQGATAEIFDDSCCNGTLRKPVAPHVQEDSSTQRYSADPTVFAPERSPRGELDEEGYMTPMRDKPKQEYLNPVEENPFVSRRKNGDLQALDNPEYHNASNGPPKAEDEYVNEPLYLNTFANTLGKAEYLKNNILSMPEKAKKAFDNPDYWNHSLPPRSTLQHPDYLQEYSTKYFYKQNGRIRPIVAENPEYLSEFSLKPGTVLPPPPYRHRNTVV
T31 sequence (P35626 whole entry): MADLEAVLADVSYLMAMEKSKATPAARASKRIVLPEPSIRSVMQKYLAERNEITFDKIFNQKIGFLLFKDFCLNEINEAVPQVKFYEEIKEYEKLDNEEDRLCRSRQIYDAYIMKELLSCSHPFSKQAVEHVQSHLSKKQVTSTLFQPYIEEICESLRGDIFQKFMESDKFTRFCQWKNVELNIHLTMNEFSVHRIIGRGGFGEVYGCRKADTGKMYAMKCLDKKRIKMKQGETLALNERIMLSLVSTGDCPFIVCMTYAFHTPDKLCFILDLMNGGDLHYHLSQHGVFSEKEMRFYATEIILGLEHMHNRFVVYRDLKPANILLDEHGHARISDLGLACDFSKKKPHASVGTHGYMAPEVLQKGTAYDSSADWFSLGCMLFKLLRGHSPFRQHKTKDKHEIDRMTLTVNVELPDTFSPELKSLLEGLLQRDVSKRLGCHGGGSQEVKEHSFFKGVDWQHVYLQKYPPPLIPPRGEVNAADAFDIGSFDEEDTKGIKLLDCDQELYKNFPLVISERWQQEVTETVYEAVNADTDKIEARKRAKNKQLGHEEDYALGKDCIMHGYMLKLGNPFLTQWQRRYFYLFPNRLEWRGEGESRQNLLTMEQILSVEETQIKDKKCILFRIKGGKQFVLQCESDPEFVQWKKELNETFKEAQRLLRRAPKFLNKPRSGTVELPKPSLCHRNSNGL
T19 sequence (P00533 25-1210 T790M/L858R): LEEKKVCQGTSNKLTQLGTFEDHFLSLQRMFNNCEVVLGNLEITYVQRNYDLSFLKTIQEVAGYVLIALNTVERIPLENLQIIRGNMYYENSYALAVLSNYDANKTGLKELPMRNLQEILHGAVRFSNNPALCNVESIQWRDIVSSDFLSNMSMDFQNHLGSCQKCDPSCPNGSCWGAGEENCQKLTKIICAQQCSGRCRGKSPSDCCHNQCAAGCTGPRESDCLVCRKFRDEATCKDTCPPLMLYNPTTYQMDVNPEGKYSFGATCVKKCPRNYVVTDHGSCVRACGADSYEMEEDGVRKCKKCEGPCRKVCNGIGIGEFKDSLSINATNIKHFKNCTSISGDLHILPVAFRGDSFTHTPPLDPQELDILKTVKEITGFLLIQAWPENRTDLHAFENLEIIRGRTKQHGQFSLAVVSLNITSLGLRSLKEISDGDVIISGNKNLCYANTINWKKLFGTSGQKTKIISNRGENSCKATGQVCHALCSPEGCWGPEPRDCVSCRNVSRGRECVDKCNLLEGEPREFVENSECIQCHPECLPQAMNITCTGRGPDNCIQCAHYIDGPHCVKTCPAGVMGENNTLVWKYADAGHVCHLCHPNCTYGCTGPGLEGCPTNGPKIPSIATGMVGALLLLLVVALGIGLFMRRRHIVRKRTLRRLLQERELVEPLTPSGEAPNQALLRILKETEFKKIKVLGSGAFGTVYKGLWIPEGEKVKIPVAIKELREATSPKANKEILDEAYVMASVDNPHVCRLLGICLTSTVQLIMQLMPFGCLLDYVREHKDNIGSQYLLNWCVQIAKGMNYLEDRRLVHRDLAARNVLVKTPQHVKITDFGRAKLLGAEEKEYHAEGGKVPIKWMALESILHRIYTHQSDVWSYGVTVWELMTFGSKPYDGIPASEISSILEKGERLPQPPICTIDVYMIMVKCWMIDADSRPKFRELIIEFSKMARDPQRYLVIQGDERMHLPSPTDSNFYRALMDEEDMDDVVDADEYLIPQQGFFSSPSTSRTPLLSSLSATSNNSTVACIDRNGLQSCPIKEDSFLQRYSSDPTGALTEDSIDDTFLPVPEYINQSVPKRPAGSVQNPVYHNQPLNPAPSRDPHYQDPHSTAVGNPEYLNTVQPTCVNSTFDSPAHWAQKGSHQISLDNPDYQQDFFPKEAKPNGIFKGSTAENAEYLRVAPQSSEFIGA
T32 sequence (P10721 26-976 D816V): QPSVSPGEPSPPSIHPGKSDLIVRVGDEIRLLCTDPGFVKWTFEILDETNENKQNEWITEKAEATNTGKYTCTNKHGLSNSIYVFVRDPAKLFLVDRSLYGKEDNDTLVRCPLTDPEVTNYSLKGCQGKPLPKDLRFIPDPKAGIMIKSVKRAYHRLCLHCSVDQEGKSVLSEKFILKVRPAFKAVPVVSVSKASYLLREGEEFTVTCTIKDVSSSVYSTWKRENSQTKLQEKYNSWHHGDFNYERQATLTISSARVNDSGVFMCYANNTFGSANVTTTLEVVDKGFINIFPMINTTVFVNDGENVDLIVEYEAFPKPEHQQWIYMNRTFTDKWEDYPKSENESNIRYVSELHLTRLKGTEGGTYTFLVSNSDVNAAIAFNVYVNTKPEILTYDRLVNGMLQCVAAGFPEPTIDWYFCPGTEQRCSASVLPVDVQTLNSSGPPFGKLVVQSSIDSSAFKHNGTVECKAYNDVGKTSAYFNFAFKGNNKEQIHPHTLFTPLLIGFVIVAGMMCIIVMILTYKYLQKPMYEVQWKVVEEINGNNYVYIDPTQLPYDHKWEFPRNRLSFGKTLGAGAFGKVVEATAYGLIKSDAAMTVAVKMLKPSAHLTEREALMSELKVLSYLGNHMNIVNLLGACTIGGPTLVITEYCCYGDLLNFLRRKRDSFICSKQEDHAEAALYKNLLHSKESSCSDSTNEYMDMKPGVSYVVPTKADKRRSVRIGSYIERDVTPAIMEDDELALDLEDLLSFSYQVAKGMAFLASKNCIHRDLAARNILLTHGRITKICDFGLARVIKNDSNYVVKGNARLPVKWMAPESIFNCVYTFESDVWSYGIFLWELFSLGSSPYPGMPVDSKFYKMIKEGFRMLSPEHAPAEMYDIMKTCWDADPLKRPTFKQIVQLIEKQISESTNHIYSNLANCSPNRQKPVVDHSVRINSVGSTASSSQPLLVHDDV
T12 sequence (Q9BXA7 whole entry): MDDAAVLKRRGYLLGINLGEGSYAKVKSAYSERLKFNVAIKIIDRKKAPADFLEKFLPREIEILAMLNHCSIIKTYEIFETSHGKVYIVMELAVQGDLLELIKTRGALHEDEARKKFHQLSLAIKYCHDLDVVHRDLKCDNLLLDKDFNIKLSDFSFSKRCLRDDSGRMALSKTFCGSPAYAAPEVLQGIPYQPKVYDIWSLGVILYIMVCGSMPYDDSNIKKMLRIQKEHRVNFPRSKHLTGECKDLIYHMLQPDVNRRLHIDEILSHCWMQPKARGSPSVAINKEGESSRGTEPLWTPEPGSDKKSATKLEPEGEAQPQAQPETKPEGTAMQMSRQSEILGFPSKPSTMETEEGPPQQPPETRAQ

`O=C(O)c1ccc(-c2coc3ncc(-c4ccccc4)cc23)cc1Cl` [SGC-CAMKK2-1N (UNC-YL-83)] was tested, and the remaining binding at 1 µM [1] was 88%, the remaining binding at 1 µM [2] was 95% and the remaining binding at 1 µM [3] was 90%. For the same compound, the remaining binding at 1 µM [4] was 100%, the remaining binding at 1 µM [5] was 89% and the remaining binding at 1 µM [6] was 92%. The remaining binding at 1 µM [7] was 74%, the remaining binding at 1 µM [8] was 71% and the remaining binding at 1 µM [9] was 64%. For the same compound, the remaining binding at 1 µM [10] was 100%, the remaining binding at 1 µM [11] was 84% and the remaining binding at 1 µM [12] was 83%. It also gave a remaining binding at 1 µM [13] of 84%, a remaining binding at 1 µM [14] of 96% and a remaining binding at 1 µM [15] of 100%. It also gave a remaining binding at 1 µM [16] of 61%.

With `Cc1cccc(-c2cnc3occ(-c4ccc(C(=O)O)c(C5CCCC5)c4)c3c2)c1` [SGC-CAMKK2-1 (YL-36)] the remaining binding at 1 µM [17] was 91%, the remaining binding at 1 µM [18] was 100% and the remaining binding at 1 µM [19] was 100%. For the same compound, the remaining binding at 1 µM [20] was 94%, the remaining binding at 1 µM [21] was 99% and the remaining binding at 1 µM [22] was 94%. It also gave a remaining binding at 1 µM [23] of 100%, a remaining binding at 1 µM [24] of 88% and a remaining binding at 1 µM [25] of 100%. The remaining binding at 1 µM [26] was 100%, the remaining binding at 1 µM [27] was 100% and the remaining binding at 1 µM [28] was 90%. For the same compound, the remaining binding at 1 µM [29] was 100%, the remaining binding at 1 µM [30] was 87% and the remaining binding at 1 µM [31] was 100%. The remaining binding at 1 µM [32] was 100%.

— PMC9856672, “SGC-CAMKK2-1: A Chemical Probe for CAMKK2” (Cells, 2023)
